Assay results as given in patent publication US4667019A, “Azo dyes containing a triazolyl group for use in liquid crystalline materials” (Kernforschungszentrum Karlsruhe GmbH, priority 1986, dated 1987).
Blank lines part the entries; values can stand above or below the compound they belong to.

Assays:
Assay type in all cases: physicochemical
[1] = solubility L in ZLI 1840 at room temperature; conditions: ZLI 1840 (Merck), stirred 1 week
Procedure: (§1) The degrees of order S and the solubilities L, both measured at room temperature in the ZLI 1840 wide-range mixture from Merck, are summarized in Table 1 for Examples 1-18. The degrees of order S and the solubilities L for Examples 19-32, measured at room temperature in the […] liquid crystal mixture from Merck, are summarized in Table 3.
(§2) The solubility was determined as follows: 50 mg of the particular dye were stirred into 1 ml of ZLI 1840 at room temperature for 1 week, and saturation of the soluton was determined by comparing extinction values.

[2] = degree of order S (dichroic ratio CR) in ZLI 1840 at room temperature; set-up: key: S = (CR-1)/(CR+2), with CR = E∥/E⊥ dichroic ratio; conditions: ZLI 1840 wide-range mixture (Merck)
Procedure: as §1
(§3) The degree of order S was determined in accordance with the known equation S=(CR-1)/(CR+2), using commercial measuring cells with homogeneous edge orientation. The dichroic ratio CR was determined by measuring the extinctions E^.parallel. (measured using polarized light parallel to the preferred direction of the nematic phase) and E^.perp. (measured using polarized light perpendicular to the preferred direction of the nematic phase) and using the relationship CR=E^.parallel. /E^.perp. the dye concentration being chosen so that E^.parallel. was from 1 to 2. The measurements were carried out using a Beckman Acta CIII spectrophotometer.

[3] = degree of order S (dichroic ratio CR) in ZLI 1957/5 at room temperature; conditions: ZLI 1957/5 liquid crystal mixture (Merck)
Procedure: as §1, §3

[4] = solubility L in ZLI 1957/5 at room temperature; conditions: ZLI 1957/5 liquid crystal mixture (Merck)
Procedure: as §1, §2

[5] = light-stability, high-speed exposure of the measuring cell in a Suntest; conditions: 25° C
Procedure: The light-stability was determined by high-speed exposure of the measuring cell in a Suntest from Hanau, at 25° C. In this procedure, the decrease in E^.parallel. was measured. The initial extinction E^.parallel. and the exposure time E^.parallel.80% after which E^.parallel. has decreased to 80% are shown in Table 2 for Examples 5, 8, 9, 10, 11, 12, 13, 14 and 15. The percentage change in E^.parallel.0 is plotted against the exposure time in FIGS. 2, 3 and 4 for Examples 8, 11 and 15.

Compound: CCC1CCC(c2ccc(COc3ccc(N=Nc4cc(C)c(N=Nc5ccc(-n6nc7ccc(C)cc7n6)c(C)c5)cc4C)c(C)c3)cc2)CC1 (stereo not shown) [Example 18]
Solubility L [1]: 2,9% | Degree of order S [2]: 0,77

Compound: Cc1nn(-c2cc(C#N)c(N=Nc3ccc(N=Nc4ccc(N(C)C)cc4)cc3)c(C#N)c2)nc1C [Example 7]
Solubility L [1]: < 0,1% | Degree of order S [2]: 0,74

Compound: CCOC(=O)c1nn(-c2ccc(N=Nc3cc(C)c(N=Nc4ccc(N(C)C)cc4)cc3C)cc2)nc1C [Example 5]
exposure time E∥80% after which E∥ has decreased to 80% [5]: 101 h | Solubility L [1]: 0,2% | Degree of order S [2]: 0,73

Compound: Cc1ccc2nn(-c3ccc(N=Nc4ccc(N=Nc5ccc(N(C)CC(C)C)cc5C)cc4C)cc3C)nc2c1 [Example 28]
Degree of order S [3]: 0,72 | Solubility L [4]: 1,5%

Compound: CCCCc1ccc2nn(-c3ccc(N=Nc4cc(C)c(N=Nc5ccc(N(C)C)c6ccccc56)cc4C)cc3C)nc2c1 [Example 32]
Solubility L [1]: 0,1% | Degree of order S [2]: 0,65

Compound: CCCCc1ccc2nn(-c3ccc(N=Nc4cc(C)c(N=Nc5ccc(NC)c6ccccc56)cc4C)cc3C)nc2c1 [Example 31]
Solubility L [1]: 2,0% | Degree of order S [2]: 0,70

Compound: Cc1nn(-c2ccc(N=Nc3ccc(N4CCOCC4)cc3)cc2)nc1C [Example 1]
Degree of order S [2]: 0,64

Compound: CCCCOC(=O)c1ccc2nn(-c3ccc(N=Nc4cc(C)c(N=Nc5ccc(N(C)C)cc5)cc4C)cc3C)nc2c1 [Example 19]
Solubility L [1]: 0,3% | Degree of order S [2]: 0,76

Compound: Cc1nn(-c2cc(Br)c(N=Nc3ccc(N=Nc4ccc(N(C)C)cc4)cc3)c(Br)c2)nc1C [Example 6]
Solubility L [1]: 1,8% | Degree of order S [2]: 0,61

Compound: Cc1nn(-c2ccc(N=Nc3ccc(N=Nc4ccc(N(C)C)cc4)cc3)cc2)nc1C [Example 3]
Solubility L [1]: 0,4% | Degree of order S [2]: 0,74

Compound: Cc1ccc2nn(-c3ccc(N=Nc4cc(C)c(N=Nc5ccc(N(C)C)cc5)cc4C)cc3)nc2c1 [Example 10]
exposure time E∥80% after which E∥ has decreased to 80% [5]: 147 h | Solubility L [1]: 0,6% | Degree of order S [2]: 0,73

Compound: Cc1ccc2nn(-c3ccc(N=Nc4ccc(N=Nc5ccc(NCc6ccccc6)cc5)cc4C)cc3C)nc2c1 [Example 23]
Solubility L [1]: 1,9% | Degree of order S [2]: 0,79

Compound: CN(C)c1ccc(N=Nc2ccc(-n3nc4c(n3)CCCC4)cc2)cc1 [Example 2]
Solubility L [1]: 1,4% | Degree of order S [2]: 0,71

Compound: CCOC(=O)c1nn(-c2ccc(N=Nc3ccc(N=Nc4ccc(N(C)C)cc4)c4ccccc34)cc2)nc1C [Example 8]
exposure time E∥80% after which E∥ has decreased to 80% [5]: 27,5 h | Solubility L [1]: 0,5% | Degree of order S [2]: 0,74

Compound: Cc1ccc2nn(-c3ccc(N=Nc4ccc(N=Nc5ccc(N)cc5C)cc4C)cc3C)nc2c1 [Example 11]
exposure time E∥80% after which E∥ has decreased to 80% [5]: 170 h

Compound: Cc1ccc2nn(-c3ccc(N=Nc4cc(C)c(N=Nc5ccc(OCc6ccccc6)cc5C)cc4C)cc3C)nc2c1 [Example 17]
Solubility L [1]: 0,6% | Degree of order S [2]: 0,74

Compound: Cc1ccc2nn(-c3cc(C)c(N=Nc4cc(C)c(N=Nc5ccc(N(C)C)cc5)cc4C)cc3C)nc2c1 [Example 9]
exposure time E∥80% after which E∥ has decreased to 80% [5]: 111 h | Solubility L [1]: 0,5% | Degree of order S [2]: 0,76

Compound: COc1cc(N=Nc2ccc(N(C)C)cc2)ccc1N=Nc1ccc(-n2nc(C)c(C)n2)cc1 [Example 4]
Solubility L [1]: 0,7% | Degree of order S [2]: 0,70

Now from value to compound:

Solubility L [1]: > 5% | Degree of order S [2]: 0,77
Compound: CCCCNc1ccc(N=Nc2ccc(N=Nc3ccc(-n4nc5ccc(C)cc5n4)c(C)c3)c(C)c2)cc1 [Example 22]

Degree of order S [3]: 0,71 | Solubility L [4]: 0,5%
Compound: CCCCN(C)c1ccc(N=Nc2cc(C)c(N=Nc3ccc(-n4nc5ccc(C)cc5n4)c(C)c3)cc2OC)cc1 [Example 29]

Solubility L [1]: > 5% | Degree of order S [2]: 0,77
Compound: CCCCN(C)c1ccc(N=Nc2ccc(N=Nc3ccc(-n4nc5ccc(C)cc5n4)c(C)c3)c(C)c2)cc1 [Example 24]

Degree of order S [3]: 0,67 | Solubility L [4]: 0,3%
Compound: CCCCN(C)c1ccc(N=Nc2cc(OC)c(N=Nc3ccc(-n4nc5ccc(C)cc5n4)c(C)c3)cc2OC)cc1 [Example 30]

Solubility L [1]: 0,5% | Degree of order S [2]: 0,74
Compound: CCCCOc1ccc(N=Nc2ccc(N=Nc3ccc(-n4nc5ccc(C)cc5n4)c(C)c3)c(C)c2)c(C)c1 [Example 16]

Degree of order S [3]: 0,74 | Solubility L [4]: 2,0%
Compound: CCCCN(C)c1ccc(N=Nc2cc(C)c(N=Nc3ccc(-n4nc5ccc(C)cc5n4)c(C)c3)cc2C)cc1 [Example 20]

exposure time E∥80% after which E∥ has decreased to 80% [5]: 68 h | Solubility L [1]: 2,8% | Degree of order S [2]: 0,79
Compound: CCCCc1ccc2nn(-c3ccc(N=Nc4ccc(N=Nc5ccc(N(C)C)cc5)cc4C)cc3C)nc2c1 [Example 15]

Solubility L [1]: 2,8% | Degree of order S [2]: 0,76
Compound: Cc1ccc2nn(-c3ccc(N=Nc4ccc(N=Nc5ccc(N(C)C)cc5)cc4C)cc3C)nc2c1 [Example 21]

exposure time E∥80% after which E∥ has decreased to 80% [5]: 111 h | Solubility L [1]: > 2,3% | Degree of order S [2]: 0,76
Compound: CCCCc1ccc2nn(-c3ccc(N=Nc4cc(C)c(N=Nc5ccc(N(C)C)cc5)cc4C)cc3C)nc2c1 [Example 14]

Solubility L [1]: 2,0% | Degree of order S [2]: 0,76
Compound: Cc1ccc2nn(-c3ccc(N=Nc4ccc(N=Nc5ccc(N(C)C)cc5C)cc4C)cc3C)nc2c1 [Example 26]

exposure time E∥80% after which E∥ has decreased to 80% [5]: 97 h | Solubility L [1]: > 5% | Degree of order S [2]: 0,74
Compound: CCCCN(CCCC)c1ccc(N=Nc2ccc(N=Nc3ccc(-n4nc5ccc(C)cc5n4)c(C)c3)c(C)c2)cc1 [Example 13]

Solubility L [1]: 1,9% | Degree of order S [2]: 0,76
Compound: Cc1ccc2nn(-c3ccc(N=Nc4ccc(N=Nc5ccc(N(C)Cc6ccccc6)cc5)cc4C)cc3C)nc2c1 [Example 25]

Solubility L [1]: 3,9% | Degree of order S [2]: 0,75
Compound: CCCCc1ccc2nn(-c3ccc(N=Nc4ccc(N=Nc5ccc(N(C)C)cc5C)cc4C)cc3C)nc2c1 [Example 27]
